In patent US20160286797A1, “Herbicidal Agents Containing Aclonifen” (BAYER CROPSCIENCE AKTIENGESELLSCHAFT, priority 2013, published 2016):

Key:
[1] = test system: Lolium spp. resistant to HRAC group B; experiment: Greenhouse experiment, post-emergence treatment of ryegrass biotype resistant to HRAC group B; format: in vivo; conditions: post-emergence (PO, BBCH 11), about 3 weeks after application
Description: (§1) In the standard design of the test, seeds of various broad-leaved weed and weed grass biotypes (origins) were sown in a 8-13 cm diameter pot filled with natural soil of a standard field soil (loamy silt; non-sterile) and covered with a covering soil layer of about 1 cm. The pots were then cultivated in a greenhouse (12-16 h light, temperature day 20-22° C., night 15-18° C.) until the time of application. The pots were treated on a laboratory track sprayer with spray liquors comprising the compositions according to the invention, mixtures of the prior art or components used individually. […]
(§2) About 3 weeks after the application, the soil action or/and foliar action was assessed visually according to a scale of 0-100% in comparison to an untreated comparative group: 0%=no noticable effect compared to the untreated comparative group; 100%=full effect compared to the untreated comparative group. […]
(§3) Insofar as herbicidal effects of the compositions according to the invention compared to mixtures of the prior art or compared to components applied individually against economically important mono- and dicotyledonous harmful plants were the center of attention, the synergistic herbicidal activities were calculated using Colby's formula (cf. S. R. Colby; Weeds 15 (1967), 20-22): […]
(§4) Δ=difference (%) of the measured value (%) to the expected value (%) (measured value minus expected value). […]

[2] = test system: Lolium spp. resistant to HRAC group A; experiment: Greenhouse experiment, post-emergence treatment of ryegrass biotype resistant to HRAC group A; format: in vivo; conditions: post-emergence (PO, BBCH 11), about 3 weeks after application
Description: as §1, §2, §3, §4

| Compound | effect (measured value, visual scale 0-100% vs untreated) ([1]; 225 g of AS/ha) | effect (measured value, visual scale 0-100% vs untreated) ([2]; 225 g of AS/ha) | effect (measured value, visual scale 0-100% vs untreated) ([1]; 30 g of AS/ha) | effect (measured value, visual scale 0-100% vs untreated) ([2]; 30 g of AS/ha) |
| --- | --- | --- | --- | --- |
| Nc1c([N+](=O)[O-])ccc(Oc2ccccc2)c1Cl [(A) aclonifen, 2-chloro-6-nitro-3-phenoxybenzenamine] | 50% | 25% |  |  |
| O=C(Nc1ccc(F)cc1F)c1cccnc1Oc1cccc(C(F)(F)F)c1 [(B) diflufenican, N-(2,4-difluorophenyl)-2-[3-(trifluoromethyl)phenoxy]-3-pyridinecarboxamide] |  |  | 5% | 10% |
